Source: publication PMC10746543, “Design principles for cyclin K molecular glue degraders” (Nature Chemical Biology, 2023)
Several values for one entry are separate records, joined by “and”; a condition that tells them apart may be missing. Equal values may be shown once. Read-outs that look alike come from different tables or passages of the source.

Tests used:
[1] = biological target: CDK12–cyclin K (Homo sapiens, UniProt Q9NYV4); assay: Lanthascreen kinase binding assay, CDK12; settings: duplicates
Description: (§1) Lanthascreen experiments were performed using commercially available reagents (Thermo Fisher) and according to the manufacturer’s instructions.

[2] = biological target: T1, CDK9–cyclin T (Homo sapiens, UniProt P50750); assay: Lanthascreen kinase binding assay, CDK9
T1 construct: purchased Thermo Fisher
Description: as §1

[3] = biological target: T2, CDK2–cyclin A (Homo sapiens, UniProt P24941); assay: Lanthascreen kinase binding assay, CDK2; settings: for Lanthascreen signal, sheet CDK2: raw replicates
T2 construct: purchased Thermo Fisher
Description: as §1

T1 sequence (P50750 whole entry): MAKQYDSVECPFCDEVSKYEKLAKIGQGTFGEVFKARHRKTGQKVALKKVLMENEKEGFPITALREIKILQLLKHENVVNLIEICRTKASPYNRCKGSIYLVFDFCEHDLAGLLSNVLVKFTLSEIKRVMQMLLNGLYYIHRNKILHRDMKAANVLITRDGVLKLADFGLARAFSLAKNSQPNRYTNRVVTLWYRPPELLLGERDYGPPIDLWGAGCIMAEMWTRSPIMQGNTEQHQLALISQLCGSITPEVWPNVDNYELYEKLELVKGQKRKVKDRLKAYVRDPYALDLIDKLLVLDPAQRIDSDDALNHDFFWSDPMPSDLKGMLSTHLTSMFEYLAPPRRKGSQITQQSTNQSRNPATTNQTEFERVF
T1 sequence (O60563 whole entry partner): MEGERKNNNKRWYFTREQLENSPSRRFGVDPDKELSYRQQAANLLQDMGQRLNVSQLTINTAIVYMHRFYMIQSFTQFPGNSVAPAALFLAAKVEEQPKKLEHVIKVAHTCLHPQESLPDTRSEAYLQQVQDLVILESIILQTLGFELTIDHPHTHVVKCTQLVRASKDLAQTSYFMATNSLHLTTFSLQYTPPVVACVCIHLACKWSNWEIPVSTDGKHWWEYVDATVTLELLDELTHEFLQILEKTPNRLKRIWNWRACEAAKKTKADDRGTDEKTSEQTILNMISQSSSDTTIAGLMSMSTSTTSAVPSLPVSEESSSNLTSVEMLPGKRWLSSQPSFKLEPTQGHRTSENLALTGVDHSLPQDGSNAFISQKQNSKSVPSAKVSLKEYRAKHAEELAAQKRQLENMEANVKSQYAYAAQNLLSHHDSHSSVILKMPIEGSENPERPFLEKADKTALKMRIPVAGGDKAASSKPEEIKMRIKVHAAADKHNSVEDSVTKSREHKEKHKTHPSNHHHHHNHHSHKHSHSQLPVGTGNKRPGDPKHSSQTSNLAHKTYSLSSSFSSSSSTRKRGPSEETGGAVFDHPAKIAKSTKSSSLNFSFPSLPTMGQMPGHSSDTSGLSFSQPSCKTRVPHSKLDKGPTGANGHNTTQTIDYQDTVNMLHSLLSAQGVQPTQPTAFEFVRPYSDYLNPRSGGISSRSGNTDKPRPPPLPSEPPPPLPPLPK
Chain of CDK12–cyclin K (Q9NYV4 713-1052): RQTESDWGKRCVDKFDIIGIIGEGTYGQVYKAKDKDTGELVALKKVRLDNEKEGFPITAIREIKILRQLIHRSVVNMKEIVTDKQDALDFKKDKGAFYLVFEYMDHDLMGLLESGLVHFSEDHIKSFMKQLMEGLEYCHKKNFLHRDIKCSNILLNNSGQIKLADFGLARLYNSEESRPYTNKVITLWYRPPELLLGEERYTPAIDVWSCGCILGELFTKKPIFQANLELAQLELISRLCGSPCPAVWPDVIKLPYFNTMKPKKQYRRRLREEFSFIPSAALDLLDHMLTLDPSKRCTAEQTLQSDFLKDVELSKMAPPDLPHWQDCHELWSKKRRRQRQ
Chain of CDK12–cyclin K (O75909 1-267 partner limits assumed): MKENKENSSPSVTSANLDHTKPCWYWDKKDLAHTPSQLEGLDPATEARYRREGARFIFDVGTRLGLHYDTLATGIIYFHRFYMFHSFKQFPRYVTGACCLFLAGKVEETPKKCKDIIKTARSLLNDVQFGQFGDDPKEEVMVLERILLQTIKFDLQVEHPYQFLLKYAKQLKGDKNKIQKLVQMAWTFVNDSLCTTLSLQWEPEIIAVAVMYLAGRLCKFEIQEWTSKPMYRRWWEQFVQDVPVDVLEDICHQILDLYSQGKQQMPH

Lanthascreen raw signal, sheet CDK12 ([1]; compound 2500 nM, series r49): 0.006693 and 0.006957 | Lanthascreen raw signal, sheet CDK12 ([1]; compound 10000 nM, series r13): 0.008087 and 0.007713 | Lanthascreen raw signal, sheet CDK12 ([1]; compound 10000 nM, series r49): 0.006488 and 0.006166 | IC50 ([2]; Lanthascreen, average, Extended Data Fig. 8, read-out: CDK9 IC50): 0.12 µM | Lanthascreen TR-FRET signal (raw ratio), sheet CDK9 ([2]; compound 0.038147 nM, fourth titration set (r37), triplicates): 0.0408 and 0.04808 and 0.04479 | Lanthascreen TR-FRET signal (raw ratio), sheet CDK9 ([2]; compound 0.038147 nM, second titration set (r13), duplicates): 0.01436 and 0.01414 | Lanthascreen TR-FRET signal (raw ratio), sheet CDK9 ([2]; compound 0.152588 nM, fourth titration set (r37), triplicates): 0.0398 and 0.0481 and 0.0499 | Lanthascreen TR-FRET signal (raw ratio), sheet CDK9 ([2]; compound 0.152588 nM, second titration set (r13), duplicates): 0.01385 and 0.01395 | Lanthascreen TR-FRET signal (raw ratio), sheet CDK9 ([2]; compound 0.610352 nM, fourth titration set (r37), triplicates): 0.03905 and 0.04639 and 0.04821 | Lanthascreen TR-FRET signal (raw ratio), sheet CDK9 ([2]; compound 0.610352 nM, second titration set (r13), duplicates): 0.01357 and 0.01395 | Lanthascreen TR-FRET signal (raw ratio), sheet CDK9 ([2]; compound 9.76563 nM, fourth titration set (r37), triplicates): 0.03561 and 0.04225 and 0.04097 | Lanthascreen TR-FRET signal (raw ratio), sheet CDK9 ([2]; compound 9.76563 nM, second titration set (r13), duplicates): 0.01332 and 0.01366 | Lanthascreen TR-FRET signal (raw ratio), sheet CDK9 ([2]; compound 39.0625 nM, fourth titration set (r37), triplicates): 0.02645 and 0.03287 and 0.03192 | Lanthascreen TR-FRET signal (raw ratio), sheet CDK9 ([2]; compound 39.0625 nM, second titration set (r13), duplicates): 0.01225 and 0.01118 | Lanthascreen TR-FRET signal (raw ratio), sheet CDK9 ([2]; compound 156.25 nM, fourth titration set (r37), triplicates): 0.01751 and 0.01989 and 0.01852 | Lanthascreen TR-FRET signal (raw ratio), sheet CDK9 ([2]; compound 156.25 nM, second titration set (r13), duplicates): 0.008604 and 0.00887 | Lanthascreen TR-FRET signal (raw ratio), sheet CDK9 ([2]; compound 625 nM, fourth titration set (r37), triplicates): 0.008779 and 0.01074 and 0.01058 | Lanthascreen TR-FRET signal (raw ratio), sheet CDK9 ([2]; compound 625 nM, second titration set (r13), duplicates): 0.005642 and 0.005316 | Lanthascreen TR-FRET signal (raw ratio), sheet CDK9 ([2]; compound 2500 nM, fourth titration set (r37), triplicates): 0.006189 and 0.006358 and 0.00654 | Lanthascreen TR-FRET signal (raw ratio), sheet CDK9 ([2]; compound 2500 nM, second titration set (r13), duplicates): 0.00388 and 0.003855 | Lanthascreen TR-FRET signal (raw ratio), sheet CDK9 ([2]; compound 10000 nM, fourth titration set (r37), triplicates): 0.00467 and 0.004911 and 0.00523 | Lanthascreen TR-FRET signal (raw ratio), sheet CDK9 ([2]; compound 10000 nM, second titration set (r13), duplicates): 0.003154 and 0.003151 | Lanthascreen signal, sheet CDK2 ([3]; Compound 0.038147 nM, experiment r13-r23): 0.01269 and 0.01352 | Lanthascreen signal, sheet CDK2 ([3]; Compound 0.038147 nM, experiment r48-r58): 0.008606 and 0.009047 | Lanthascreen signal, sheet CDK2 ([3]; Compound 0.038147 nM, experiment r60-r70): 0.02095 and 0.02064 and 0.01986 | Lanthascreen signal, sheet CDK2 ([3]; Compound 0.152588 nM, experiment r13-r23): 0.01305 and 0.01362 | Lanthascreen signal, sheet CDK2 ([3]; Compound 0.152588 nM, experiment r48-r58): 0.00965 and 0.01047 | Lanthascreen signal, sheet CDK2 ([3]; Compound 0.152588 nM, experiment r60-r70): 0.02036 and 0.02142 and 0.02063 | Lanthascreen signal, sheet CDK2 ([3]; Compound 0.610352 nM, experiment r13-r23): 0.01272 and 0.01276 | Lanthascreen signal, sheet CDK2 ([3]; Compound 0.610352 nM, experiment r48-r58): 0.009379 and 0.009611 | Lanthascreen signal, sheet CDK2 ([3]; Compound 0.610352 nM, experiment r60-r70): 0.02437 and 0.01852 and 0.0217 | Lanthascreen signal, sheet CDK2 ([3]; Compound 9.76563 nM, experiment r13-r23): 0.0128 and 0.01342 | Lanthascreen signal, sheet CDK2 ([3]; Compound 9.76563 nM, experiment r48-r58): 0.0095 and 0.01028 | Lanthascreen signal, sheet CDK2 ([3]; Compound 9.76563 nM, experiment r60-r70): 0.02195 and 0.02182 and 0.02183 | Lanthascreen signal, sheet CDK2 ([3]; Compound 39.0625 nM, experiment r13-r23): 0.01226 and 0.01223 | Lanthascreen signal, sheet CDK2 ([3]; Compound 39.0625 nM, experiment r48-r58): 0.009849 and 0.009843 | Lanthascreen signal, sheet CDK2 ([3]; Compound 39.0625 nM, experiment r60-r70): 0.02238 and 0.0202 and 0.02147 | Lanthascreen signal, sheet CDK2 ([3]; Compound 156.25 nM, experiment r13-r23): 0.01136 and 0.01335 | Lanthascreen signal, sheet CDK2 ([3]; Compound 156.25 nM, experiment r48-r58): 0.009932 and 0.01021 | Lanthascreen signal, sheet CDK2 ([3]; Compound 156.25 nM, experiment r60-r70): 0.02199 and 0.02222 and 0.02099 | Lanthascreen signal, sheet CDK2 ([3]; Compound 625 nM, experiment r13-r23): 0.01232 and 0.01317 | Lanthascreen signal, sheet CDK2 ([3]; Compound 625 nM, experiment r48-r58): 0.009318 and 0.009813 | Lanthascreen signal, sheet CDK2 ([3]; Compound 625 nM, experiment r60-r70): 0.02407 and 0.01928 and 0.02248 | Lanthascreen signal, sheet CDK2 ([3]; Compound 2500 nM, experiment r13-r23): 0.0114 and 0.013 | Lanthascreen signal, sheet CDK2 ([3]; Compound 2500 nM, experiment r48-r58): 0.009215 and 0.009737 | Lanthascreen signal, sheet CDK2 ([3]; Compound 2500 nM, experiment r60-r70): 0.02278 and 0.02094 and 0.0202 | Lanthascreen signal, sheet CDK2 ([3]; Compound 10000 nM, experiment r13-r23): 0.01075 and 0.01117 | Lanthascreen signal, sheet CDK2 ([3]; Compound 10000 nM, experiment r48-r58): 0.008396 and 0.009419 | Lanthascreen signal, sheet CDK2 ([3]; Compound 10000 nM, experiment r60-r70): 0.02054 and 0.0167 and 0.01885 | IC50 ([3]; Lanthascreen, average, Extended Data Fig. 8, read-out: CDK2 IC50): > 10000 nM | IC50 ([3]; Supplementary Table 2, read-out: Lanthascreen IC50 [nM] CDK2): > 10000 nM
SMILES: C[C@H](C(=O)Nc1nc2ccccc2[nH]1)N1Cc2ccccc2C1=O [compound 919278]
